Measured values: a compilation of properties of binary mixtures (doi:10.7498/aps.66.196101)

Assay: xn = mol fraction of the nth substance listed
Conditions: 100 kPa

CCn1cc[n+](C)c1.N[C@@H](CO)C(=O)[O-] + O
electrical conductivity [S/m]
Conditions	303.15 K	308.15 K	313.15 K	318.15 K	323.15 K	328.15 K	333.15 K	338.15 K
x1 = 0.8695	0.102	0.14	0.176	–	0.276	0.348	–	0.526
x1 = 0.8836	0.1	0.138	0.174	–	0.273	–	–	0.522
x1 = 0.8982	0.0982	0.135	0.172	0.218	0.271	0.343	0.429	0.518
x1 = 0.9131	0.0964	–	–	0.216	–	0.341	0.426	0.515
x1 = 0.9275	–	0.13	–	0.213	0.266	0.338	0.423	–

CCCCC[n+]1ccccc1.N#C[N-]C#N + O
Conditions	electrical conductivity, x1 = 0.9199 [S/m]	electrical conductivity, x1 = 0.9356 [S/m]	electrical conductivity, x1 = 0.9518 [S/m]	electrical conductivity, x1 = 0.9685 [S/m]	electrical conductivity, x2 = 0.0142 [S/m]	viscosity, x1 = 0.9199 [mPa·s]	viscosity, x1 = 0.9345 [mPa·s]	viscosity, x1 = 0.9518 [mPa·s]	viscosity, x1 = 0.9674 [mPa·s]	viscosity, x2 = 0.0154 [mPa·s]
298.15 K	0.687	–	0.648	0.63	0.611	41	42.1	43.4	44.7	45.9
303.15 K	0.865	–	0.798	0.761	0.719	33.3	34.1	35.1	36	37
308.15 K	1.08	1.03	–	0.926	0.873	27.4	28.1	–	–	30.4
313.15 K	–	1.19	1.13	1.09	1.03	–	23.49	24.01	24.6	25.4
318.15 K	1.42	1.39	1.33	–	–	19.45	19.85	20.32	20.87	21.39
323.15 K	–	1.6	1.55	–	1.43	–	–	16.27	–	–
328.15 K	1.86	–	1.76	1.7	–	13.96	–	14.48	14.81	–
333.15 K	2.08	2.03	1.97	1.92	1.88	12.2	12.43	12.69	12.99	13.26
338.15 K	2.34	2.29	–	2.17	2.12	10.78	10.9	–	11.32	11.64

CCCC[n+]1ccn(C)c1.N[C@@H](CO)C(=O)[O-] + O
Conditions	electrical conductivity, x1 = 0.8285 [S/m]	electrical conductivity, x1 = 0.843 [S/m]	electrical conductivity, x1 = 0.8591 [S/m]	electrical conductivity, x1 = 0.8757 [S/m]	electrical conductivity, x1 = 0.8918 [S/m]	viscosity, x1 = 0.852 [mPa·s]	viscosity, x1 = 0.8736 [mPa·s]	viscosity, x1 = 0.894 [mPa·s]	viscosity, x1 = 0.9165 [mPa·s]	viscosity, x1 = 0.9388 [mPa·s]
298.15 K	0.0076	0.0071	0.0068	0.0065	–	5107	5135	–	–	5270
303.15 K	0.0118	0.0111	–	–	0.0097	2975	3000	–	3073	3147
308.15 K	0.0196	0.0183	0.017	0.016	0.0151	1828	1843	1868	1897	1952
313.15 K	0.0293	0.028	0.0261	0.0247	0.0237	1135	1159	–	1231	–
318.15 K	0.0423	0.0402	0.0375	0.0357	0.0341	753	768	790	822	870
323.15 K	0.0597	0.0565	0.0534	0.0511	0.0488	523	532	544	566	597
328.15 K	0.0817	–	–	0.0703	0.0679	–	352	–	388	–
333.15 K	–	0.106	–	0.0958	0.0921	247	255	266	279	304
338.15 K	0.146	0.14	–	0.127	0.122	–	187.4	197	212	229

CCCC[n+]1ccccc1.N#C[N-]C#N + O
Conditions	electrical conductivity, x1 = 0.9189 [S/m]	electrical conductivity, x1 = 0.9335 [S/m]	electrical conductivity, x1 = 0.9486 [S/m]	electrical conductivity, x1 = 0.9642 [S/m]	electrical conductivity, x2 = 0.0198 [S/m]	viscosity, x1 = 0.9257 [mPa·s]	viscosity, x1 = 0.9415 [mPa·s]	viscosity, x1 = 0.9569 [mPa·s]	viscosity, x1 = 0.9726 [mPa·s]	viscosity, x2 = 0.0111 [mPa·s]
298.15 K	1.03	0.997	0.968	–	0.903	28.23	29.04	–	31.13	32.25
303.15 K	–	–	–	1.08	1.06	23.59	24.03	–	25.61	26.58
308.15 K	1.41	1.38	1.34	1.29	1.26	19.79	20.18	20.75	21.47	22.17
313.15 K	1.65	1.6	1.57	–	1.5	–	17.11	–	18.19	18.73
318.15 K	1.93	–	1.85	1.81	1.76	–	14.67	15	–	16.14
323.15 K	2.32	2.26	2.18	2.11	2.05	12.11	12.4	–	13.13	–
328.15 K	2.51	2.47	2.42	2.36	2.3	–	–	11.08	11.44	11.84
333.15 K	2.85	2.81	–	–	2.65	9.38	9.57	–	10.1	10.43
338.15 K	3.22	3.16	3.1	3.05	2.99	8.34	–	8.65	8.93	9.19

CCC[n+]1ccccc1.N#C[N-]C#N + O
Conditions	electrical conductivity, x1 = 0.9305 [S/m]	electrical conductivity, x1 = 0.9444 [S/m]	electrical conductivity, x1 = 0.9588 [S/m]	electrical conductivity, x1 = 0.9735 [S/m]	electrical conductivity, x2 = 0.0114 [S/m]	viscosity, x1 = 0.9277 [mPa·s]	viscosity, x1 = 0.9416 [mPa·s]	viscosity, x1 = 0.9559 [mPa·s]	viscosity, x1 = 0.9705 [mPa·s]	viscosity, x2 = 0.0144 [mPa·s]
298.15 K	–	1.44	1.41	1.37	1.34	20.93	21.6	–	–	24.55
303.15 K	–	–	1.61	–	1.53	17.56	18.05	18.78	19.65	20.53
308.15 K	2.03	1.97	1.91	1.86	1.81	15.11	15.43	15.97	16.69	17.49
313.15 K	2.35	2.3	2.23	2.17	–	–	13.31	–	14.28	14.87
318.15 K	2.64	–	2.57	2.52	2.47	11.38	11.63	11.99	–	12.93
323.15 K	2.98	–	2.92	–	2.84	–	9.95	10.29	10.68	11.07
328.15 K	3.42	3.38	3.33	3.29	3.25	8.53	–	–	9.21	9.66
333.15 K	3.88	–	3.77	–	3.68	7.65	7.77	7.97	8.23	8.57
338.15 K	4.31	4.27	–	4.17	4.11	6.91	7.01	–	7.41	7.68

CCCCCC[n+]1ccccc1.N#C[N-]C#N + O
Conditions	electrical conductivity, x1 = 0.9076 [S/m]	electrical conductivity, x1 = 0.9239 [S/m]	electrical conductivity, x1 = 0.9408 [S/m]	electrical conductivity, x1 = 0.9582 [S/m]	electrical conductivity, x1 = 0.9762 [S/m]	viscosity, x1 = 0.9152 [mPa·s]	viscosity, x1 = 0.9306 [mPa·s]	viscosity, x1 = 0.9488 [mPa·s]	viscosity, x1 = 0.9665 [mPa·s]	viscosity, x2 = 0.0151 [mPa·s]
298.15 K	0.554	0.532	0.512	–	–	49.3	–	51.8	53.7	–
303.15 K	0.682	0.66	0.642	0.615	0.588	39.19	40.28	41.67	–	45.48
308.15 K	0.817	–	0.769	0.739	0.711	32.18	33.01	34.12	35.44	37.16
313.15 K	0.997	0.958	0.927	0.889	0.839	26.76	27.39	28.15	29.09	30.51
318.15 K	1.17	1.12	–	1.05	1	–	23.12	23.8	–	25.35
323.15 K	1.34	1.29	1.26	1.22	1.17	18.75	19.06	19.48	20.12	21.03
328.15 K	1.52	–	1.42	1.39	–	–	16.38	–	17.36	18.12
333.15 K	1.73	1.68	1.64	1.59	1.55	13.84	14.07	14.44	14.95	15.67
338.15 K	–	1.9	–	1.8	1.75	–	12.38	12.75	13.17	–

CCCn1cc[n+](C)c1.N[C@@H](CO)C(=O)[O-] + O
Conditions	electrical conductivity, x1 = 0.8651 [S/m]	electrical conductivity, x1 = 0.881 [S/m]	electrical conductivity, x1 = 0.8954 [S/m]	electrical conductivity, x1 = 0.9112 [S/m]	electrical conductivity, x1 = 0.9275 [S/m]	viscosity, x1 = 0.878 [mPa·s]	viscosity, x1 = 0.8933 [mPa·s]	viscosity, x1 = 0.909 [mPa·s]	viscosity, x1 = 0.9253 [mPa·s]	viscosity, x1 = 0.9422 [mPa·s]
298.15 K	0.0244	0.0231	0.0219	0.0204	0.0191	–	2259	–	–	2495
303.15 K	0.0369	0.0356	0.0339	0.0321	0.0301	1399	1414	1439	1477	–
308.15 K	0.0559	0.0538	0.0521	0.0497	0.0469	–	923	942	966	1000
313.15 K	–	0.0775	–	–	0.0685	617	624	633	650	670
318.15 K	0.112	0.109	0.106	–	–	428	–	–	447	462
323.15 K	0.154	–	–	0.14	0.135	300	306	312	322	–
328.15 K	0.204	–	0.194	0.187	0.182	229	231	234	–	245
333.15 K	0.268	0.261	0.256	–	0.241	–	172.3	174.6	178.4	183
338.15 K	0.342	0.333	0.327	–	–	130.5	131.1	132.4	–	137.2

CC[n+]1ccccc1.N#C[N-]C#N + O
Conditions	electrical conductivity, x1 = 0.9285 [S/m]	electrical conductivity, x1 = 0.9414 [S/m]	electrical conductivity, x1 = 0.9545 [S/m]	electrical conductivity, x1 = 0.9681 [S/m]	electrical conductivity, x2 = 0.0181 [S/m]	viscosity, x1 = 0.9353 [mPa·s]	viscosity, x1 = 0.9484 [mPa·s]	viscosity, x1 = 0.9617 [mPa·s]	viscosity, x1 = 0.9754 [mPa·s]	viscosity, x2 = 0.0105 [mPa·s]
298.15 K	2.27	–	2.06	–	1.86	14.98	15.27	15.62	16.02	–
303.15 K	2.46	2.37	–	2.18	2.08	12.98	13.23	13.58	–	14.38
308.15 K	2.75	2.66	–	2.48	2.39	11.41	11.59	11.87	12.17	–
313.15 K	3.05	2.98	2.9	–	2.74	–	10.26	–	10.73	–
318.15 K	3.39	3.33	–	3.18	3.1	8.95	9.11	9.32	9.52	9.75
323.15 K	3.85	3.78	3.7	3.61	3.54	7.77	7.9	8.08	–	8.44
328.15 K	4.34	4.26	4.18	4.08	4.01	7.01	7.13	7.28	–	7.61
333.15 K	–	–	4.7	–	4.48	6.35	6.45	6.58	6.73	6.88
338.15 K	5.47	5.34	5.24	5.11	5.01	–	–	5.98	–	6.22
